Data as given in ChEMBL document CHEMBL1201862, “PubChem BioAssay data set” (2004).
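Protocol summary: plate cells (96-well), add compound at 5 concentrations, incubate 48 h, interpolate endpoints linearly. Abbreviation: GI50, concentration required for 50% inhibition of growth.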 Activity calls are given as the source filed them. No stated cut-off is given here; in the data, active = GI50 up to about 1.1 µM and inactive = higher.

How the values were obtained:
Test in all cases: NCI-60 cell line screen, 48 h
[1] = test system: IGROV-1
[2] = test system: LOX IMVI
[3] = test system: SNB-19
[4] = test system: NCI-H522
[5] = test system: CAKI-1
[6] = test system: DU-145
[7] = test system: RPMI-8226
[8] = test system: SN12C
[9] = test system: U-251
[10] = test system: COLO 205
[11] = test system: 786-0
[12] = test system: HL-60
[13] = test system: SK-MEL-5
[14] = test system: MDA-N
[15] = test system: HCT-15
[16] = test system: HT-29
[17] = test system: K562
[18] = test system: M14

| SMILES | GI50 [1] | GI50 [2] | GI50 [3] | GI50 [4] | GI50 [5] | GI50 [6] | GI50 [7] | GI50 [8] | GI50 [9] | GI50 [10] | GI50 [11] | GI50 [12] | GI50 [13] | GI50 [14] | GI50 [15] [µM] | GI50 [16] | GI50 [17] | GI50 [18] |
| --- | --- | --- | --- | --- | --- | --- | --- | --- | --- | --- | --- | --- | --- | --- | --- | --- | --- | --- |
| Cc1cc(C)n(C2OC(CO)C(O)C(O)C2O)c(=S)c1C#N (centres undefined) | > 100 µM (inactive) | > 100 µM (inactive) | > 100 µM (inactive) | > 100 µM (inactive) | > 100 µM (inactive) | > 100 µM (inactive) | > 100 µM (inactive) | > 100 µM (inactive) | > 100 µM (inactive) | > 100 µM (inactive) | > 100 µM (inactive) | > 100 µM (inactive) | > 100 µM (inactive) | > 100 µM (inactive) | > 100 | > 100 µM (inactive) | > 10 µM (inactive) | > 100 µM (inactive) |
| CC(=O)N(CN1C(=O)CCC1C(=O)O)c1ccccc1Cl (centres undefined) | > 100 µM (inactive) | > 100 µM (inactive) | > 100 µM (inactive) | > 100 µM (inactive) | > 100 µM (inactive) | > 100 µM (inactive) | > 100 µM (inactive) | > 100 µM (inactive) | > 100 µM (inactive) | > 100 µM (inactive) | > 100 µM (inactive) | > 100 µM (inactive) | > 100 µM (inactive) | > 100 µM (inactive) | > 100 | > 100 µM (inactive) | > 100 µM (inactive) | > 100 µM (inactive) |
| O=C(O)c1cscc1Cc1cccs1 | > 100 µM (inactive) | > 100 µM (inactive) | > 100 µM (inactive) | > 100 µM (inactive) | > 100 µM (inactive) | > 100 µM (inactive) | > 100 µM (inactive) | > 100 µM (inactive) | > 100 µM (inactive) | > 100 µM (inactive) | > 100 µM (inactive) | > 100 µM (inactive) | > 100 µM (inactive) | > 100 µM (inactive) | > 100 | > 100 µM (inactive) | > 100 µM (inactive) | > 100 µM (inactive) |
| COc1ccc(Nc2nc3ccc(C(F)(F)F)cc3nc2C(=O)O)cc1OC | 34.3 µM (inactive) | 28.8 µM (inactive) | 23.6 µM (inactive) | 25.8 µM (inactive) | 39.5 µM (inactive) | 28.6 µM (inactive) | – | 34.9 µM (inactive) | 27.4 µM (inactive) | 43 µM (inactive) | 35 µM (inactive) | 29.9 µM (inactive) | 20.1 µM (inactive) | 34.7 µM (inactive) | 25.9 | 38.4 µM (inactive) | 29 µM (inactive) | – |
| CC(=O)N1C(CCc2ccccc2)CC(C)(C=O)C1Cc1ccc(O[Si](C(C)C)(C(C)C)C(C)C)cc1 (centres undefined) | 4.9 µM (inactive) | 1.94 µM (inactive) | 4.83 µM (inactive) | 2.15 µM (inactive) | 3.05 µM (inactive) | 5.61 µM (inactive) | 2.07 µM (inactive) | 3.29 µM (inactive) | 3.12 µM (inactive) | 2.93 µM (inactive) | 2.38 µM (inactive) | 1.76 µM (inactive) | 3.4 µM (inactive) | 2.39 µM (inactive) | 3.03 | 2.86 µM (inactive) | 2.72 µM (inactive) | 1.85 µM (inactive) |
| Cc1ccc(C[N+](C)(C)N)cc1C | > 10 µM (inactive) | > 10 µM (inactive) | > 10 µM (inactive) | > 10 µM (inactive) | > 10 µM (inactive) | > 10 µM (inactive) | > 10 µM (inactive) | > 10 µM (inactive) | > 10 µM (inactive) | > 10 µM (inactive) | > 10 µM (inactive) | > 10 µM (inactive) | > 10 µM (inactive) | > 10 µM (inactive) | > 10 | > 10 µM (inactive) | > 10 µM (inactive) | > 10 µM (inactive) |
| O=C1/C(=C/c2n[nH]cc2-c2ccc(Cl)cc2)C(=O)N(c2ccccc2)C1c1ccccc1 (centres undefined) | 16.6 µM (inactive) | 14.3 µM (inactive) | 27.4 µM (inactive) | 7.74 µM (inactive) | 10.1 µM (inactive) | 20.6 µM (inactive) | 13.7 µM (inactive) | 29.1 µM (inactive) | 19.9 µM (inactive) | 14.2 µM (inactive) | 17.2 µM (inactive) | 12.9 µM (inactive) | 13.8 µM (inactive) | 14 µM (inactive) | 15 | 12.3 µM (inactive) | 8.41 µM (inactive) | 12.9 µM (inactive) |
| O=C1CC2OCC=C3CN4CCC5(C(=O)O)C(N1)C2C3CC45 (centres undefined) | > 100 µM (inactive) | > 100 µM (inactive) | > 100 µM (inactive) | > 100 µM (inactive) | > 100 µM (inactive) | > 100 µM (inactive) | – | > 100 µM (inactive) | > 100 µM (inactive) | > 100 µM (inactive) | > 100 µM (inactive) | > 100 µM (inactive) | > 100 µM (inactive) | > 100 µM (inactive) | > 100 | > 100 µM (inactive) | > 100 µM (inactive) | > 100 µM (inactive) |
| CCCCCCCN(CCCCCCC)CC(O)c1cc2ccccc2c2cc(Br)ccc12 (centres undefined) | 62.1 µM (inactive) | 14.2 µM (inactive) | 38.7 µM (inactive) | 28.7 µM (inactive) | 47.6 µM (inactive) | 8.07 µM (inactive) | 24.9 µM (inactive) | 6.58 µM (inactive) | 18.3 µM (inactive) | 24.8 µM (inactive) | 31.6 µM (inactive) | 39.2 µM (inactive) | – | 28.5 µM (inactive) | 7.53 | 67 µM (inactive) | 30.7 µM (inactive) | 22.6 µM (inactive) |
| CC(C)(C)c1ccc(O)c(CN(Cc2cc(C(C)(C)C)ccc2O)c2ccccc2)c1 | 21.1 µM (inactive) | 13.7 µM (inactive) | 16.4 µM (inactive) | 13.3 µM (inactive) | 31.8 µM (inactive) | 19.1 µM (inactive) | 16.7 µM (inactive) | 17.7 µM (inactive) | 15.1 µM (inactive) | 17.1 µM (inactive) | 16.6 µM (inactive) | – | 15.1 µM (inactive) | 16.6 µM (inactive) | 18.3 | 18.3 µM (inactive) | 11.6 µM (inactive) | 14.4 µM (inactive) |
| CCN(CCO)CC1COc2ccccc2O1 (centres undefined) | > 100 µM (inactive) | > 100 µM (inactive) | – | > 100 µM (inactive) | > 100 µM (inactive) | > 100 µM (inactive) | – | > 100 µM (inactive) | > 100 µM (inactive) | > 100 µM (inactive) | > 100 µM (inactive) | > 100 µM (inactive) | > 100 µM (inactive) | > 100 µM (inactive) | > 100 | > 100 µM (inactive) | > 100 µM (inactive) | > 100 µM (inactive) |
| NC12c3c4cccc3Oc3cccc(c31)Oc1cccc(c12)O4 | > 50 µM (inactive) | – | > 50 µM (inactive) | 17.7 µM (inactive) | > 50 µM (inactive) | > 50 µM (inactive) | > 50 µM (inactive) | > 50 µM (inactive) | > 50 µM (inactive) | > 50 µM (inactive) | > 50 µM (inactive) | 18.2 µM (inactive) | – | > 50 µM (inactive) | > 50 | > 50 µM (inactive) | 31 µM (inactive) | > 50 µM (inactive) |
| O=C(N/N=C\c1ccc([N+](=O)[O-])s1)c1ccncc1 | 10.3 µM (inactive) | – | 33.4 µM (inactive) | 4.75 µM (inactive) | 27.9 µM (inactive) | 20.7 µM (inactive) | 5.62 µM (inactive) | 8.65 µM (inactive) | 17.7 µM (inactive) | 2.13 µM (inactive) | 6.67 µM (inactive) | 2.38 µM (inactive) | 3.25 µM (inactive) | 14.1 µM (inactive) | 5.27 | 4.13 µM (inactive) | > 10 µM (inactive) | 11.6 µM (inactive) |
| CCCC(=O)N1CCN(c2ccc3c(c2)OC(C)O3)CC1 (centres undefined) | > 100 µM (inactive) | – | > 100 µM (inactive) | > 100 µM (inactive) | > 100 µM (inactive) | > 100 µM (inactive) | – | > 100 µM (inactive) | > 100 µM (inactive) | > 100 µM (inactive) | > 100 µM (inactive) | – | > 100 µM (inactive) | > 100 µM (inactive) | > 100 | > 100 µM (inactive) | > 100 µM (inactive) | > 100 µM (inactive) |
| Cc1ccc(/C=N/n2c(=O)[nH]c3ccccc3c2=O)cc1 | > 100 µM (inactive) | > 100 µM (inactive) | > 100 µM (inactive) | – | > 100 µM (inactive) | > 100 µM (inactive) | > 100 µM (inactive) | > 100 µM (inactive) | > 100 µM (inactive) | > 100 µM (inactive) | > 100 µM (inactive) | > 100 µM (inactive) | > 100 µM (inactive) | > 100 µM (inactive) | > 100 | > 100 µM (inactive) | > 100 µM (inactive) | > 100 µM (inactive) |
| Cc1c(C)c2c(c(N)c1C#N)C(=O)N(NC(=S)Nc1ccccc1)C2=O | 56.5 µM (inactive) | – | 56.6 µM (inactive) | 52.7 µM (inactive) | 18.2 µM (inactive) | > 100 µM (inactive) | 43.3 µM (inactive) | 69.7 µM (inactive) | > 100 µM (inactive) | 79.4 µM (inactive) | 44.1 µM (inactive) | 86.9 µM (inactive) | 90.4 µM (inactive) | > 100 µM (inactive) | 67.8 | 60.1 µM (inactive) | > 100 µM (inactive) | > 100 µM (inactive) |
| O=S(=O)(NC1OCCCC1I)c1ccccc1 (centres undefined) | 44.5 µM (inactive) | 84.9 µM (inactive) | > 100 µM (inactive) | > 100 µM (inactive) | > 100 µM (inactive) | > 100 µM (inactive) | 43.2 µM (inactive) | > 100 µM (inactive) | > 100 µM (inactive) | > 100 µM (inactive) | > 100 µM (inactive) | – | > 100 µM (inactive) | > 100 µM (inactive) | > 100 | > 100 µM (inactive) | > 100 µM (inactive) | – |
